Key:
[1] = target: Mitogen-activated protein kinase kinase kinase 9 (Homo sapiens, UniProt P80192)
[2] = target: Phosphatidylinositol 4-phosphate 3-kinase C2 domain-containing subunit beta (Homo sapiens) (UniProt O00750)
[3] = target: Tyrosine-protein kinase Lyn (Homo sapiens, UniProt P07948)
[4] = target: Serine/threonine-protein kinase TAO1 (Homo sapiens) (UniProt Q7L7X3)
[5] = target: Serine/threonine-protein kinase/endoribonuclease IRE1 (Homo sapiens) (UniProt O75460)
[6] = target: Ribosomal protein S6 kinase alpha-2 (Homo sapiens) (UniProt Q15349)
[7] = target: Ephrin type-A receptor 3 (Homo sapiens) (UniProt P29320)
[8] = target: Interferon-induced, double-stranded RNA-activated protein kinase (Homo sapiens) (UniProt P19525)
[9] = target: 5'-AMP-activated protein kinase catalytic subunit alpha-1 (Homo sapiens) (UniProt Q13131)
[10] = target: Serine/threonine-protein kinase haspin (Homo sapiens) (UniProt Q8TF76)
[11] = target: Protein kinase C epsilon type (Homo sapiens) (UniProt Q02156)
[12] = target: Cyclin-dependent kinase 19 (Homo sapiens) (UniProt Q9BWU1)
[13] = target: Mitogen-activated protein kinase kinase kinase 13 (Homo sapiens) (UniProt O43283)
[14] = target: Serine/threonine-protein kinase SIK1 (Homo sapiens) (UniProt P57059)
[15] = target: MAP/microtubule affinity-regulating kinase 3 (Homo sapiens) (UniProt P27448)
[16] = test system: Serine/threonine-protein kinase B-raf (Homo sapiens), P15056 [V600E]
Chain of Serine/threonine-protein kinase B-raf (Homo sapiens), P15056 [V600E] (P15056 whole entry V600E): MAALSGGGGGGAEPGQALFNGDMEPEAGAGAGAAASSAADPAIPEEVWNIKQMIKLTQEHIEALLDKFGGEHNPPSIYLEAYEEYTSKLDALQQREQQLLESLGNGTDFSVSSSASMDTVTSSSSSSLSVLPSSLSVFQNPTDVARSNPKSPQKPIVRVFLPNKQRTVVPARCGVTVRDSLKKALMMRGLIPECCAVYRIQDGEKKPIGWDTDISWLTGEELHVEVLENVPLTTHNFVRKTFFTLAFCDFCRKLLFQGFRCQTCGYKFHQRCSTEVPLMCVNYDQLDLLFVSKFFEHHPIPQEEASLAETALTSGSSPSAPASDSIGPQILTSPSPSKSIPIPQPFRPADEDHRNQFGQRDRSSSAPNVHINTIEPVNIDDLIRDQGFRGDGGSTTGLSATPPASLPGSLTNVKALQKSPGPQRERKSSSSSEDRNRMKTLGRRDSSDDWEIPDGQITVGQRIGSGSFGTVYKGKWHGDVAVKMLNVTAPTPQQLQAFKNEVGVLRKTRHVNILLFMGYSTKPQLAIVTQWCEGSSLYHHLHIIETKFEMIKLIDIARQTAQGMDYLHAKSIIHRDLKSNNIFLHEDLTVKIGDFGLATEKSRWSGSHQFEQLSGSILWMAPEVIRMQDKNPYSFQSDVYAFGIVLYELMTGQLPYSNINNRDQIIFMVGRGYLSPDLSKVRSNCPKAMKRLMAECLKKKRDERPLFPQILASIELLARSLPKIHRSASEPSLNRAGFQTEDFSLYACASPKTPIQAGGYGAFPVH

[17] = target: Cyclin-dependent kinase 8 (Homo sapiens) (UniProt P49336)
Chain of Cyclin-dependent kinase 8 (Homo sapiens) (P49336 whole entry): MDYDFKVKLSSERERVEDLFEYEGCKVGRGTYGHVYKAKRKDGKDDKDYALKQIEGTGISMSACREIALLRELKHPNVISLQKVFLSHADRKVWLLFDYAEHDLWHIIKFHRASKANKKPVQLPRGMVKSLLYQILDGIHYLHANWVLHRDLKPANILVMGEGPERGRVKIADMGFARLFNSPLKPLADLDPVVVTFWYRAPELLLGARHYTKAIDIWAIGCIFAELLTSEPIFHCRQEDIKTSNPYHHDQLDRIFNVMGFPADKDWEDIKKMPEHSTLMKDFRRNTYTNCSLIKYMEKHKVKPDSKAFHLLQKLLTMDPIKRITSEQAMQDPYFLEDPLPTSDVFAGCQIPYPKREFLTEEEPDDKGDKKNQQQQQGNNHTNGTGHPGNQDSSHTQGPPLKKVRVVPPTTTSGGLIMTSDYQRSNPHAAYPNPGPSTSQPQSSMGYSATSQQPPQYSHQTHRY

Rattus norvegicus = organism: Rattus norvegicus; conditions: Compound concentration 10.0 uM
[18] = target: Macrophage-stimulating protein receptor (Homo sapiens) (UniProt Q04912)
[19] = target: Alpha-2C adrenergic receptor (Homo sapiens) (UniProt P18825); conditions: Compound concentration 10.0 uM
[20] = target: Phosphatidylinositol 3-kinase C2 domain-containing subunit gamma (Homo sapiens) (UniProt O75747)
[21] = target: Serine/threonine-protein kinase Nek10 (Homo sapiens) (UniProt Q6ZWH5)
[22] = target: Mitogen-activated protein kinase 14 (Homo sapiens) (UniProt Q16539)
[23] = target: T1, Inhibitor of nuclear factor kappa-B kinase subunit beta (Homo sapiens) (UniProt O14920)
T1 sequence (whole entry): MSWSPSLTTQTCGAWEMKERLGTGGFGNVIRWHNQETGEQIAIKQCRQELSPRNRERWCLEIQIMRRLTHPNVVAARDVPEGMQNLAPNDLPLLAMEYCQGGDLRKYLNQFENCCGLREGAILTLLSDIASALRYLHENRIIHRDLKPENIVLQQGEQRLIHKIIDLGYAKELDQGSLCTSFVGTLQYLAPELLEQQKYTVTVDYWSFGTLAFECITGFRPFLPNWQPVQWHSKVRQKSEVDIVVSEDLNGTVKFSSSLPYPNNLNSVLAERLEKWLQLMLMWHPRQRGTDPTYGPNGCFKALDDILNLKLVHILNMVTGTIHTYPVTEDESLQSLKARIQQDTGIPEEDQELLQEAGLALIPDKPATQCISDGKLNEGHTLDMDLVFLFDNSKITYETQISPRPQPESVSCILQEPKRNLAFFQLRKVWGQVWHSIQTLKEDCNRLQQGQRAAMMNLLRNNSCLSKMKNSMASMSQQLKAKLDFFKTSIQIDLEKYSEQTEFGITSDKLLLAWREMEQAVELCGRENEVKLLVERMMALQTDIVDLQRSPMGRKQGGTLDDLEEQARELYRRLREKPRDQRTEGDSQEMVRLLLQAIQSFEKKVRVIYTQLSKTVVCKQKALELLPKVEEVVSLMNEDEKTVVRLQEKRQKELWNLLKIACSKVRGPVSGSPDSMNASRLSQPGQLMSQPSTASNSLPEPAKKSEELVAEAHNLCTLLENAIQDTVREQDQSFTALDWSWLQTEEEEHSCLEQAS

[24] = target: Serine/threonine-protein kinase ICK (Homo sapiens) (UniProt Q9UPZ9)
[25] = target: Serine/threonine-protein kinase Chk2 (Homo sapiens) (UniProt O96017)
Chain of Serine/threonine-protein kinase Chk2 (Homo sapiens) (O96017 whole entry): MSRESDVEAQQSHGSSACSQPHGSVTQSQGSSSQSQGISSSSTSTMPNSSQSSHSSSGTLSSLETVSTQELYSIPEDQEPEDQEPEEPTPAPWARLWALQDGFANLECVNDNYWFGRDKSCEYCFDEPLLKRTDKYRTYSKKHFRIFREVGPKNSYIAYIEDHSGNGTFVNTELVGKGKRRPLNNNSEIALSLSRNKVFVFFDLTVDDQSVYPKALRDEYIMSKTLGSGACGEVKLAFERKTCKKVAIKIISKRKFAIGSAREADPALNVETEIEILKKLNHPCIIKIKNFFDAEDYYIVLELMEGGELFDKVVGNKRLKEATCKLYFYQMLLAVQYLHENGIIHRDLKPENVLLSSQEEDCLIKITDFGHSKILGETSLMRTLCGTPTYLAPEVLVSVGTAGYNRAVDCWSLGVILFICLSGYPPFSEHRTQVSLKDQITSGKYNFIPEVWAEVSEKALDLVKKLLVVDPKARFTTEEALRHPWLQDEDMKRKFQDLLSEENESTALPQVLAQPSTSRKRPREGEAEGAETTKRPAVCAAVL

[26] = target: 5'-AMP-activated protein kinase catalytic subunit alpha-2 (Homo sapiens) (UniProt P54646)
Chain of 5'-AMP-activated protein kinase catalytic subunit alpha-2 (Homo sapiens) (P54646 whole entry, looked up): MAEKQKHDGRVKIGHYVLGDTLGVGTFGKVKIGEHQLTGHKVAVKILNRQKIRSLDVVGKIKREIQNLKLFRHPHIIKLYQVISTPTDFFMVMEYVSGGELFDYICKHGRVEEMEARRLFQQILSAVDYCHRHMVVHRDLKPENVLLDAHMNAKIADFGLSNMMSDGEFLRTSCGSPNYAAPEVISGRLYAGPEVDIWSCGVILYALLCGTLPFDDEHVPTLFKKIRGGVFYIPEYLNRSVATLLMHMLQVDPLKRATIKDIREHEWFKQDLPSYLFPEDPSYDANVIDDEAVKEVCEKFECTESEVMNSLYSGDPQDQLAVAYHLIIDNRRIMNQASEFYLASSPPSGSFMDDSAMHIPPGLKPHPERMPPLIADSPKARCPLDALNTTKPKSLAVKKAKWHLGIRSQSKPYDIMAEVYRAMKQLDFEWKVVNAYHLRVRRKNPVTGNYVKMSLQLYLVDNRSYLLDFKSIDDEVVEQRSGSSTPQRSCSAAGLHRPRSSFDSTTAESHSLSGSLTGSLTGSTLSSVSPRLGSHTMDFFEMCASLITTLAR

[27] = target: Serine/threonine-protein kinase 10 (Homo sapiens) (UniProt O94804)
Chain of Serine/threonine-protein kinase 10 (Homo sapiens) (O94804 whole entry, looked up): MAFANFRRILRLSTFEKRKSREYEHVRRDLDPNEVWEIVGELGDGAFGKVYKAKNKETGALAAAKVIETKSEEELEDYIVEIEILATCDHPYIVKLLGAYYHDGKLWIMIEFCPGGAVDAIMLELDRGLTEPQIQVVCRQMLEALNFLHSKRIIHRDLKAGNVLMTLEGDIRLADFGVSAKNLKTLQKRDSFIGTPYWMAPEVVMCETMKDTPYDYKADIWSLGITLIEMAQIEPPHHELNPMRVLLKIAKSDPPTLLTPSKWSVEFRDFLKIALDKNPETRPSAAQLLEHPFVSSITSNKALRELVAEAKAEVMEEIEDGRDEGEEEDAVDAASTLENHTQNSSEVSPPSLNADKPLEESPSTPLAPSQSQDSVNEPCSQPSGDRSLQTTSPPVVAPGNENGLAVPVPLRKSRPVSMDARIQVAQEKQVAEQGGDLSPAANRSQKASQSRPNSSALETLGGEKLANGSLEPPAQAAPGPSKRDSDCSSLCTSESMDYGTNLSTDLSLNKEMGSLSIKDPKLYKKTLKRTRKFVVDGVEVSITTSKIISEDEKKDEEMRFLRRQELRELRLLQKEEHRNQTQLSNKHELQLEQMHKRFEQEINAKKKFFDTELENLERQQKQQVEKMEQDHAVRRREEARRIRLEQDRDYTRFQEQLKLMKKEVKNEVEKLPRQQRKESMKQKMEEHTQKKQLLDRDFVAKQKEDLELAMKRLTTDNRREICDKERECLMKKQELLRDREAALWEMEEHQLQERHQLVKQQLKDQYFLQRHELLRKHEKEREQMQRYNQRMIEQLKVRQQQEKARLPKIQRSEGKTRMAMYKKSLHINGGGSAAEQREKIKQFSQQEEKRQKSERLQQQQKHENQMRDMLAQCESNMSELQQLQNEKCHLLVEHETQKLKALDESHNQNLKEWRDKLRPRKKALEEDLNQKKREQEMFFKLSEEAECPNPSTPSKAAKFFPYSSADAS

[28] = target: Ephrin type-B receptor 6 (Homo sapiens) (UniProt O15197)
[29] = target: Dual specificity protein kinase CLK3 (Homo sapiens) (UniProt P49761)
Chain of Dual specificity protein kinase CLK3 (Homo sapiens) (P49761 whole entry, looked up): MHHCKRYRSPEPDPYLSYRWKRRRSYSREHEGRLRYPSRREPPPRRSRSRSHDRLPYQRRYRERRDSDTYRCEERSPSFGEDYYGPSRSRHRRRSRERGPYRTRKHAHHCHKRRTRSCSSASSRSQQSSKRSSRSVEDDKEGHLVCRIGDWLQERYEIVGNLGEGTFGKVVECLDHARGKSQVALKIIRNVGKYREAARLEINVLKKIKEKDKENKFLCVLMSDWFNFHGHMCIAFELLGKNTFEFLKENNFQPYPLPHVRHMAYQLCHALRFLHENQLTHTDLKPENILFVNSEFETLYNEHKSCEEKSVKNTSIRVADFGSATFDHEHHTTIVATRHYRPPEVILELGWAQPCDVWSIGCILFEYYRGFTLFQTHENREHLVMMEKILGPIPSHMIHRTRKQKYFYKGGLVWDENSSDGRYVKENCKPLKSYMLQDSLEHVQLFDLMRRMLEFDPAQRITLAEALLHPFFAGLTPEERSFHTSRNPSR

[30] = target: Beta-adrenergic receptor kinase 1 (Homo sapiens) (UniProt P25098)
[31] = target: Serine/threonine-protein kinase WNK3 (Homo sapiens) (UniProt Q9BYP7)
[32] = target: Mitogen-activated protein kinase 10 (Homo sapiens) (UniProt P53779)
[33] = target: Mitogen-activated protein kinase 8 (Homo sapiens) (UniProt P45983)
[34] = target: cAMP-dependent protein kinase catalytic subunit beta (Homo sapiens) (UniProt P22694)
[35] = Compound concentration 100.0 nM
[36] = Compound concentration 1000.0 nM

Chain of Mitogen-activated protein kinase kinase kinase 9 (P80192 whole entry, looked up, the tested form may be a part): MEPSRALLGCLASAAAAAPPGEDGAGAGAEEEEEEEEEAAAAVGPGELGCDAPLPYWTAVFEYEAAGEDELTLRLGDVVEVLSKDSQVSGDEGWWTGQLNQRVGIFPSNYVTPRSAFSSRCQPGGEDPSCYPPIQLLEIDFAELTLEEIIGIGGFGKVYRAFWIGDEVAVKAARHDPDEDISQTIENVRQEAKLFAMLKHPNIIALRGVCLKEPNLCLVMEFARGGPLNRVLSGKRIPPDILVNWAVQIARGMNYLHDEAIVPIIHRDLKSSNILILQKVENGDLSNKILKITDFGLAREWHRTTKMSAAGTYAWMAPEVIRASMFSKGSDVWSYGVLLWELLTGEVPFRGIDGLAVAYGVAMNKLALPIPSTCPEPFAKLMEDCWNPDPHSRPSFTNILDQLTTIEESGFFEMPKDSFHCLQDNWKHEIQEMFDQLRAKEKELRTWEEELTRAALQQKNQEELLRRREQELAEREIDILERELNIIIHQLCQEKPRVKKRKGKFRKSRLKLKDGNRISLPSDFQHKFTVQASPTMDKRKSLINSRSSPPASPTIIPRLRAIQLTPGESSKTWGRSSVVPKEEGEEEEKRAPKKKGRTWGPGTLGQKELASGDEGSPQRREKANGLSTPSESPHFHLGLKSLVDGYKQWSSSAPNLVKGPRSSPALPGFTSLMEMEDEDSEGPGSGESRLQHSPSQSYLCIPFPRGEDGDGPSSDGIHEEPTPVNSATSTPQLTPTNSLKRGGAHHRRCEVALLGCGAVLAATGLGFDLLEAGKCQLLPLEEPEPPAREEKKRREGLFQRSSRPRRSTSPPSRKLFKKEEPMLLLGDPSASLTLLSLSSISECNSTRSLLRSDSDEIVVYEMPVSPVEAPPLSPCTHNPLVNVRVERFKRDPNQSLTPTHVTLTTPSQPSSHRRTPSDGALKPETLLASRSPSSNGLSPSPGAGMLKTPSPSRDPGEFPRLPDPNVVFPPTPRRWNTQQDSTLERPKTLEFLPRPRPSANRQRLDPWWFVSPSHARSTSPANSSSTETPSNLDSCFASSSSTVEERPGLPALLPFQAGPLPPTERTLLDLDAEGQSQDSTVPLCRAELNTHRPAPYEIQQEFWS

Compound `CNC(=O)c1ccc(Nc2ncc(C(F)(F)F)c(NCc3nccnc3N(C)S(C)(=O)=O)n2)cc1` [DEFACTINIB] has a residual activity [1, 35] of 44%, a residual activity [2, 35] of 87% and a residual activity [3, 35] of 85%. It also gave a residual activity [4, 35] of 50%, a residual activity [5, 35] of 75% and a residual activity [6, 35] of 77%. For the same compound, the residual activity [7, 35] was 82%, the residual activity [8, 35] was 100% and the residual activity [9, 35] was 84%. The residual activity [10, 35] was 100%, the residual activity [11, 35] was 100% and the residual activity [12, 35] was 100%. The residual activity [13, 35] was 98%, the residual activity [14, 35] was 90% and the residual activity [15, 35] was 90%. It also gave a residual activity [16, 35] of 100%, a residual activity [17, 35] of 50% and an inhibition (Rattus norvegicus) of 31.4%. For the same compound, the residual activity [18, 35] was 100%, the inhibition [19] was 4.73% and the residual activity [20, 35] was 92%. It also gave a residual activity [21, 35] of 100%, a residual activity [22, 35] of 100% and a residual activity [23, 35] of 100%. For the same compound, the residual activity [24, 35] was 68%, the residual activity [25, 35] was 100% and the residual activity [26, 35] was 100%. The residual activity [27, 35] was 77%, the residual activity [28, 35] was 100% and the residual activity [29, 35] was 97%. It also gave a residual activity [30, 35] of 89%, a residual activity [31, 35] of 100% and a residual activity [32, 35] of 100%. For the same compound, the residual activity [33, 35] was 100% and the residual activity [34, 35] was 93%.
Compound `CN(c1ccnc(CNc2nc(Nc3ccc4c(c3)CC(=O)N4)ncc2C(F)(F)F)n1)S(C)(=O)=O` [PF-00911705] has a residual activity [1, 36] of 41%, a residual activity [2, 36] of 79% and a residual activity [3, 36] of 80%. For the same compound, the residual activity [4, 36] was 3.7%, the residual activity [5, 36] was 49% and the residual activity [6, 36] was 57%. For the same compound, the residual activity [7, 36] was 72%, the residual activity [8, 36] was 82% and the residual activity [9, 36] was 80%. For the same compound, the residual activity [10, 36] was 76%, the residual activity [11, 36] was 50% and the residual activity [12, 36] was 84%. For the same compound, the residual activity [13, 36] was 0%, the residual activity [14, 36] was 76% and the residual activity [15, 36] was 52%. It also gave a residual activity [16, 36] of 68%, a residual activity [17, 36] of 97% and an inhibition (Rattus norvegicus) of 62.1%. For the same compound, the residual activity [18, 36] was 72%, the inhibition [19] was 4.91% and the residual activity [20, 36] was 77%. For the same compound, the residual activity [21, 36] was 90%, the residual activity [22, 36] was 92% and the residual activity [23, 36] was 78%. It also gave a residual activity [24, 36] of 100%, a residual activity [25, 36] of 0% and a residual activity [26, 36] of 87%. It also gave a residual activity [27, 36] of 100%, a residual activity [28, 36] of 54% and a residual activity [29, 36] of 12%. It also gave a residual activity [30, 36] of 31%, a residual activity [31, 36] of 79% and a residual activity [32, 36] of 56%. It also gave a residual activity [33, 36] of 65% and a residual activity [34, 36] of 88%.
